We go through 3 molecules from patent US20080200505A1, “Piperidines for the Treatment of Chemokine Mediated Diseases” (ASTRAZENECA AB, priority 2005, published 2008).

Structures are written as SMILES.

The target of the experiment is T1, human H1 receptor (Homo sapiens, UniProt P35367).
T1 construct: purchased Euroscreen SA, Brussels, Belgium ES-390-M; host or cells: CHO-K1
Description: Histamine H1 receptor binding, competition displacement of [3H]-pyrilamine. The conditions noted are these: displacement of 1 nM [3H]-pyrilamine; membranes from recombinant CHO-K1 cells expressing the human H1 receptor; 1 hour at room temperature; read-out: H1 pKi (converted). The procedure:
Histamine H1 receptor binding activity of compounds of the invention was assessed by competition displacement of 1 nM [3H]-pyrilamine (Amersham, Bucks, Product code TRK 608, specific activity 30 Ci/mmol) to 2 μg membranes prepared from recombinant CHO-K1 cells expressing the human H1 receptor (Euroscreen SA, Brussels, Belgium, product code ES-390-M) in assay buffer (50 mM Tris pH 7.4 containing 2 mM MgCl2, 250 mM sucrose and 100 mM NaCl) for 1 hour at room temperature.
The following compounds of the invention gave inhibition of [3H] pyrilimine binding: […]
For orientation: In a radioligand displacement assay an active substance lowers the binding of a labelled ligand.

T1 sequence (P35367 whole entry): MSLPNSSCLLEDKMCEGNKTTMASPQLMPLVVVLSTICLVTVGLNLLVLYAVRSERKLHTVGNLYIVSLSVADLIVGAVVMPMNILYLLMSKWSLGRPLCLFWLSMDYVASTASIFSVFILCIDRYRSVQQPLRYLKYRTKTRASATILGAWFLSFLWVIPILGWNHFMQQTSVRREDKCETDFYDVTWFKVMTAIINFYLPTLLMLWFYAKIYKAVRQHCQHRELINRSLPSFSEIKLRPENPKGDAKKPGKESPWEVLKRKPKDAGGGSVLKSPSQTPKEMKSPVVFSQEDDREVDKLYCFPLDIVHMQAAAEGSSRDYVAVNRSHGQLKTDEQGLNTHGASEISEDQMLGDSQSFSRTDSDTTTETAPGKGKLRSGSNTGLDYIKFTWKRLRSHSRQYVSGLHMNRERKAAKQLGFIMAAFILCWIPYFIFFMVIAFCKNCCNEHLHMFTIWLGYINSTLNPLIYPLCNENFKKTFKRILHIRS

As to `O=C(O)[C@H]1C2CCC(C2)[C@H]1N1CCC(CN2CCC(Oc3ccc(Cl)c(Cl)c3)CC2)CC1` (mixture of isomers) [Example 3A, (2S,3R) and (2R,3S)-3-(4-{[4-(3,4-dichlorophenoxy)piperidin-1-yl]methyl}piperidin-1-yl)bicyclo[2.2.1]heptane-2-carboxylic acid], the Ki was 126 nM.

As to `O=C(O)[C@@H]1CCCC[C@H]1N1CCC(CN2CCC(Oc3ccc(Cl)c(Cl)c3)CC2)CC1` (racemic) [Example 1A, (1R,2R) and (1S,2S)-2-(4-{[4-(3,4-dichlorophenoxy)piperidin-1-yl]methyl}piperidin-1-yl)cyclohexanecarboxylic acid], the Ki was 200 nM.

For `O=C(O)C1CCCC1N1CCC(CN2CCC(Oc3ccc(Cl)c(Cl)c3)CC2)CC1` [Example 4A, (1S,2R) and (1R,2S)-2-(4-{[4-(3,4-dichlorophenoxy)piperidin-1-yl]methyl}piperidin-1-yl)cyclopentanecarboxylate], the Ki was 316 nM.
